pEC50: −log10 of the molar value.
How the values were obtained:
[1] = system: HCV replicon cell lines; test: HCV replicon cell lines: HCV RNA by Northern Blotting, NS5a by Western Blotting; type: cell-based, Hepatitis C virus
From the text: The only reliable experimental animal HCV infection studies have been performed with chimpanzees. So far, there is no simple cell culture infection system available or HCV. Although a number of reports have been published describing in vitro propagation attempts of HCV in primary cells and cell lines, questions remain concerning reproducibility, low levels of expression and properly controlled detection methods (reviewed in J. Gen Virol. 81, 1631; Antiviral Chemistry and Chemotherapy 10, 99). Thus, the replicon system described by Bartenschlager and coworkers (Lohmann et al, Replication of subgenomic hepatitis C virus RNAs in a hepatoma cell line. Science 285, 110. 1999) was used for the studies disclosed herein. This replicon system reproduces a crucial part of the HCV replication cycle which is used as a system for simulating HCV infection. Bartenschlager's group produced bicistronic recombinant RNAs, so-called “replicons”, which carry the neomycin-phosphotransferase (NPT) gene as well as a version of the HCV genome where the sequences for the structural HCV proteins were deleted. After transfection of the subgenomic HCV RNA molecules into the human hepatoma cell line HuH-7, cells supporting efficient RNA-dependent RNA replication of the HCV replicons were selected based on co-amplification of the NPT gene and resulting resistance to the antibiotic G-418. Integration of coding information into the cellular genome was an exclusion criteria for functional replicons. Several lines were established from G-418 resistant clones with autonomously replicating HCV RNAs detectable by Northern Blotting.
Possible influences and/or dependencies of HCV's RNA-dependent RNA replication and nonstructural proteins on host cell transcription are accessible to analysis with the Clontech cDNA arrays used in the methods described herein. HuH-pcDNA3 cells are HuH7 cells resistant to G-418 by integration of a NPT gene-carrying plasmid (pcDNA3, Invitrogen) and serve as negative control. Three replicon lines were analyzed for changes in cellular RNA expression patterns compared to the control line: • HuH-9-13: cell line with persistant replicon IRES377/NS3-3′/wt, described in Science 1999, 285, 110-113, • HuH-5-15: cell line with persistant replicon IRES389/NS3-3′/wt, described in Science 1999, 285, 110-113, • HuH-11-7: cell line with persistant replicon IRES377/NS2-3′/wt, described in Science 1999, 285, 110-113.
(§1) Moreover, as model system for HCV replication there were utilized three replicon cell lines provided by Prof. R. Bartenschlager (University of Heidelberg, FRG). Cultures were treated for various periods of time with all bans retinoic acid (RA) for comparative purposes and the other agents selenium, selenium salts, Vitamin D3 and retinoids, like 9-cis retinoic acid, C1-C10 alkyl esters of 9-cis retinoic acid, C1-C10 alkyl amides of 9-cis retinoic add, N-(4-hydroxyphenyl)retinamide (4-HPR) and 6-[3-(1-adamantyl)+hydroxyphenyl]-2-naphthalene carboxylic acid (CD437; AHPN) (obtained from Sigma). Levels of expression of GI-GPx was measured on protein level by Western Blotting using antibodies provided by Prof. Brigelius-Flohe (University of Potsdam, FRG) and on RNA level by Northern blotting using GI-GPx-specific oligonucleotides as probes. Levels of HCV RNA were investigated by Northern Blotting using a DNA oligonucleotide complementary to the neomycin phosphotansferase gene as probe. Concentration of the viral protein NS5a was determined by Western Blotting with an NS5a-specific antibody (Biogenesis, UK).

[2] = target: RAR; test: Ligands for nuclear receptors: effector concentration; type: biochemical; conditions: read-out: EC50 (effector concentration, concentration showing 50% effect)
[3] = system: nuclear receptors (RAR, RXR); test: Ability to act as ligands for nuclear receptors; type: binding
[4] = system: GI-GPx; test: GI-GPx expression in replicon cells (Western / Northern blotting); type: cell-based, human
Method: as §1

[5] = system: PKR mRNA; test: PKR mRNA levels by Northern blotting (interferon response); type: cell-based, human
From the text: In the course of retinoic acid studies it was investigated whether the RA-effect may also be mediated by activating an interferon response. A typical interferon-inducible gene codes for the double-stranded RNA-dependent protein kinase (PKR).

[6] = system: interferon receptors; test: Expression of interferon receptors in replicon cells by western Blotting; type: cell-based, human
[7] = system: replicon cells; test: Cytotoxic effects on replicon cells
[8] = 1 μM, seven days, depending on the cell line
[9] = HCV replicon cell lines, FIG. 1 Panel A
[10] = replicon cells, 1 μM, three days
[11] = six days, in the presence of selenium or a selenium salt like sodium selenite

C/C(=C\c1ccc(C(=O)O)cc1)c1ccc2c(c1)C(C)(C)CCC2(C)C [TTNPB]
Effect on Replication [1]: +++ | pEC50 [2]: […] | Receptor(s) [3]: RAR

CC1=C(/C=C/C(C)=C/C=C/C(C)=C/C(=O)Nc2ccc(O)cc2)C(C)(C)CCC1 [4-HPR, N-(4-hydroxyphenyl)retinamide]
Effect on Replication [1]: ++ | Receptor(s) [3]: RAR

CC1=C(/C=C/C(C)=C/C=C/C(C)=C/C(=O)O)C(C)(C)CCC1 [ATRA, all trans retinoic acid]
Effect on Replication [1]: +++ | expression of subgenomic HCV RNA downregulated [1, 8]: two- to five-fold | expression of viral protein NS5a downregulated [1, 8]: two- to five-fold | HCV RNA [1, 9]: suppression | NS5a protein expression [1, 9]: suppression | HCV down-regulation by IFN alpha ([1]; in the presence of RA, FIG. 2 center Panel): slightly enhanced | effect on HCV expression [1, 10]: hardly an effect | reduction of HCV-NS5a protein [1, 11]: two- to five-fold | reduction of HCV-RNA [1, 11]: two- to five-fold | up-regulation of GI-GPx on RNA- and protein level ([4]; 1 μM, seven days of incubation): three- to ten-fold | GI-GPx gene expression ([4]; HCV replicon cell lines, FIG. 1 Panel B): up-regulation | effect on GI-GPx expression [4, 10]: hardly an effect | upregulation of GI-GPx RNA and protein ([4]; replicon cells, six days): upregulation | transcription of PKR [5]: did not induce | PKR mRNA levels ([5]; mock-transfected HuH7 cells (pcDNA3) and replicon cell lines, ATRA 1 μM, IFN as control, FIG. 1 Panel C): no up-regulation | interferon receptors on protein level [6]: no up-regulation | Receptor(s) [3]: RAR | toxic effects [7, 11]: absence of toxic effects

CC1=C(/C=C/C(C)=C/C=C/C(C)=C\C(=O)O)C(C)(C)CCC1 [13-cis RA, 13-cis retinoic acid]
Effect on Replication [1]: +++

O=[Se](O)O [sodium selenite]
Severe cytotoxic effects ([7]; substance alone): neither observed

COC(C)(C)CCCC(C)C/C=C/C(C)=C/C(=O)O (stereo not drawn) [Methoprene acid, 11-methoxy-3,7,11-trimethyl-2E,4E-dodecadienoic acid]
Effect on Replication [1]: − | Receptor(s) [3]: RXR

CC1(C)CCC(C)(C)c2cc(C(=O)Nc3ccc(C(=O)O)cc3)ccc21 [AM-580, (4-[5,6,7,8-tetrahydro-5,5,8,8-tetramethyl-2-naphtalenyl)carbox-amido]benzoic acid]
Effect on Replication [1]: ++ | Receptor(s) [3]: RARα/not RXR

CC1=C(/C=C/C(C)=C\C=C\C(C)=C\C(=O)O)C(C)(C)CCC1 [9-cis RA, 9-cis retinoic acid]
Effect on Replication [1]: +++ | reducing HCV load [1]: capable of reducing HCV load | downregulate HCV RNA, compared with all trans retinoic acid alone ([1]; first preliminary result): significantly better

C=C1CC[C@H](O)C/C1=C/C=C1\CCC[C@]2(C)[C@@H]([C@H](C)CCCC(C)C)CC[C@@H]12 [Vitamin D3]
reducing HCV load [1]: capable of reducing HCV load

— patent publication US20060151574A1, “Formulations useful against hepatitis C virus infections” (priority 2002, published 2006)
